In this assay the test system is P388. Kind of assay: Cytotoxicity against mouse P388 cells. It counts as functional. The settings on record: read-out: ED50 (the source's name).

Converted amounts (≈) assume the structure as drawn.

On to `CCCCCCCC/C=C/C(=O)O[C@@H]1[C@@H](C)[C@@]2(O)[C@H]([C@@H]3C(C)(C)[C@]13OC(C)=O)[C@@H](OO)C(CO)=C[C@]1(O)C(=O)C(C)=C[C@@H]21` [OSTODIN], for which the EC50 came out at 0.055 µg/mL (≈ 0.0909 µM).

Values taken from ChEMBL document CHEMBL1151410, “Plant anticancer agents. XXII. Isolation of a phorbol diester and its delta 5,6-7 beta-hydroperoxide derivative from Ostodes paniculata” (1983).
